According to PubChem BioAssay AID330 (DTP/NCI, 2004):
Several values for one entry are separate records, joined by “and”; a condition that tells them apart may be missing. Equal entries are not always repeated. Inconclusive results and toxic doses are left out.

Test system: P388 leukemia ip, CD2F1 mice, survival T/C
Assay: NCI In Vivo Anticancer Drug Screen. Data for tumor model P388 Leukemia (intraperitoneal) in CD2F1 (CDF1) mice
Settings: endpoint: median survival time, higher = longer survival
Method in brief: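 Mice carrying the transplanted tumor received test compound or vehicle. Survival was recorded in each group, and the value is the treated-group measurement divided by that of the vehicle-treated control group.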

[1] = dose: 100.0 mg/kg/injection, schedule: Q04DX002 (ip), vehicle: saline
[2] = dose: 12.5 mg/kg/injection, schedule: Q01DX009 (ip), vehicle: saline
[3] = dose: 25.0 mg/kg/injection, schedule: Q01DX009 (ip), vehicle: saline
[4] = dose: 100.0 mg/kg/injection, schedule: Q01DX001 (ip), vehicle: saline with Tween-80
[5] = dose: 50.0 mg/kg/injection, schedule: Q01DX009 (ip), vehicle: Klucel (hydroxypropylcellulose) (HPC)
[6] = dose: 100.0 mg/kg/injection, schedule: Q01DX009 (ip), vehicle: Klucel (hydroxypropylcellulose) (HPC)
[7] = dose: 200.0 mg/kg/injection, schedule: Q01DX009 (ip), vehicle: Klucel (hydroxypropylcellulose) (HPC)
[8] = dose: 50.0 mg/kg/injection, schedule: Q01DX005 (ip), vehicle: Klucel (hydroxypropylcellulose) (HPC)
[9] = dose: 100.0 mg/kg/injection, schedule: Q01DX005 (ip), vehicle: Klucel (hydroxypropylcellulose) (HPC)
[10] = dose: 200.0 mg/kg/injection, schedule: Q01DX005 (ip), vehicle: Klucel (hydroxypropylcellulose) (HPC)
[11] = dose: 25.0 mg/kg/injection, schedule: Q01DX009 (ip), vehicle: saline with Tween-80
[12] = dose: 50.0 mg/kg/injection, schedule: Q01DX009 (ip), vehicle: saline with Tween-80
[13] = dose: 50.0 mg/kg/injection, schedule: Q01DX009 (ip), vehicle: saline
[14] = dose: 100.0 mg/kg/injection, schedule: Q01DX009 (ip), vehicle: saline
[15] = dose: 200.0 mg/kg/injection, schedule: Q01DX009 (ip), vehicle: saline

Question: Which T/C (dose: 50.0 mg/kg/injection, schedule: Q01DX001 (ip), vehicle: other) does the source give for NC(=S)c1ccc(C=Nc2ccc(Cl)cc2)cc1 here?
Answer: 102 % of control

Question: And the T/C (dose: 100.0 mg/kg/injection, schedule: Q01DX001 (ip), vehicle: other)?
Answer: 98 % of control

Question: Which T/C [1] does the source give for COc1c2c(c3c(c1OC)CN(CC(c1ccccc1)c1ccccc1)CC3)CCC2 here?
Answer: 101 % of control

Question: What about the T/C (dose: 200.0 mg/kg/injection, schedule: Q04DX002 (ip), vehicle: saline) of the same compound?
Answer: 103 % of control

Question: And the T/C (dose: 400.0 mg/kg/injection, schedule: Q04DX002 (ip), vehicle: saline)?
Answer: 103 % of control

Question: What does the source list for COC(=O)C1C(O)C(C)C(O)C(C)(O)/C=C/C=C(C)C(=O)Nc2c(C)c(OC(C)=O)c3c(c2O)C(=O)C(C)=C2OCOC(=C23)C(C)=CC(C)(O)C(O)C(C)C1OC(C)=O (stereo not drawn)?
Answer: T/C (dose: 60.0 mg/kg/injection, schedule: Q01DX005 (ip), vehicle: saline with Tween-80): 95 % of control; T/C (dose: 120.0 mg/kg/injection, schedule: Q01DX005 (ip), vehicle: saline with Tween-80): 105 % of control; T/C (dose: 240.0 mg/kg/injection, schedule: Q01DX005 (ip), vehicle: saline with Tween-80): 108 % of control

Question: Oc1ccc(Nc2c3ccccc3nc3c2ccc2ccccc23)cc1CN(CCCl)CCCl was tested. Which T/C (dose: 7.2 mg/kg/injection, schedule: Q04DX003 (ip), vehicle: saline) did it give?
Answer: 194 % of control

Question: And the T/C (dose: 11.0 mg/kg/injection, schedule: Q04DX003 (ip), vehicle: saline)?
Answer: 205 % of control

Question: And the T/C (dose: 16.0 mg/kg/injection, schedule: Q04DX003 (ip), vehicle: saline)?
Answer: 161 % of control

Question: Which results are given for CNC(=O)n1cccc(OC)c1=O?
Answer: T/C [2]: 102 % of control and 107 % of control; T/C [3]: 100 % of control and 111 % of control

Question: Which results are given for COc1ccc2c(=O)c3cc([N+](=O)[O-])ccc3n(C)c2c1?
Answer: T/C (dose: 12.5 mg/kg/injection, schedule: Q01DX001 (ip), vehicle: saline with Tween-80): 100 % of control; T/C (dose: 25.0 mg/kg/injection, schedule: Q01DX001 (ip), vehicle: saline with Tween-80): 97 % of control; T/C (dose: 50.0 mg/kg/injection, schedule: Q01DX001 (ip), vehicle: saline with Tween-80): 94 % of control; T/C [4]: 94 % of control

Question: Which T/C (dose: 12.5 mg/kg/injection, schedule: Q01DX009 (ip), vehicle: saline with Tween-80) does the source give for Clc1c(Cl)c(C[P+](CCP(c2ccccc2)c2ccccc2)(c2ccccc2)c2ccccc2)c(Cl)c(Cl)c1C[P+](CCP(c1ccccc1)c1ccccc1)(c1ccccc1)c1ccccc1 here?
Answer: 120 % of control

Question: With CC(=O)Oc1ccccc1O as the compound, how does the T/C (dose: 25.0 mg/kg/injection, schedule: Q01DX009 (ip), vehicle: saline + Tween-80 + alcohol) read?
Answer: 106 % of control

Question: What about the T/C (dose: 50.0 mg/kg/injection, schedule: Q01DX009 (ip), vehicle: saline + Tween-80 + alcohol) of the same compound?
Answer: 101 % of control and 105 % of control and 116 % of control

Question: What about the T/C (dose: 100.0 mg/kg/injection, schedule: Q01DX009 (ip), vehicle: saline + Tween-80 + alcohol) of the same compound?
Answer: 109 % of control and 115 % of control

Question: NN(CC(O)COc1ccccc1)C(=O)c1ccccc1O (stereo not drawn) was tested. Which T/C [5] did it give?
Answer: 108 % of control

Question: And the T/C [6]?
Answer: 108 % of control

Question: What about the T/C [7] of the same compound?
Answer: 106 % of control

Question: How did the T/C (dose: 100.0 mg/kg/injection, schedule: Q04DX003 (ip), vehicle: other) turn out when CCOC(=O)C(Cl)c1ccc(OC)cc1 (stereo not drawn) was run?
Answer: 104 % of control

Question: And the T/C (dose: 200.0 mg/kg/injection, schedule: Q04DX003 (ip), vehicle: other)?
Answer: 90 % of control

Question: What about the T/C (dose: 400.0 mg/kg/injection, schedule: Q04DX003 (ip), vehicle: other) of the same compound?
Answer: 104 % of control

Question: For Cc1[nH]nc2c(C/C=C/c3ccccc3)n[nH]c(=O)c12, which T/C [5] is on record?
Answer: 98 % of control

Question: What about the T/C [6] of the same compound?
Answer: 100 % of control

Question: What about the T/C [7] of the same compound?
Answer: 101 % of control

Question: Which T/C (dose: 0.62 mg/kg/injection, schedule: Q04DX002 (ip), vehicle: saline) does the source give for CNC(=O)c1cccc2ccc[n+](C)c12 here?
Answer: 107 % of control

Question: And the T/C (dose: 1.25 mg/kg/injection, schedule: Q04DX002 (ip), vehicle: saline)?
Answer: 109 % of control

Question: What about the T/C (dose: 2.5 mg/kg/injection, schedule: Q04DX002 (ip), vehicle: saline) of the same compound?
Answer: 108 % of control

Question: What does the source list for O=C1C=CC(=O)C1=Cc1ccc([N+](=O)[O-])o1?
Answer: T/C (dose: 0.78 mg/kg/injection, schedule: Q04DX002 (ip), vehicle: saline with Tween-80): 106 % of control; T/C (dose: 1.56 mg/kg/injection, schedule: Q04DX002 (ip), vehicle: saline with Tween-80): 97 % of control; T/C (dose: 3.12 mg/kg/injection, schedule: Q04DX002 (ip), vehicle: saline with Tween-80): 97 % of control

Question: Which T/C [8] does the source give for O=c1[nH]c(=O)n(C(c2ccccc2)(c2ccccc2)c2ccccc2)cc1N(CCO)CCO here?
Answer: 100 % of control

Question: What about the T/C [9] of the same compound?
Answer: 97 % of control

Question: What about the T/C [10] of the same compound?
Answer: 98 % of control

Question: How did the T/C (dose: 25.0 mg/kg/injection, schedule: Q04DX002 (ip), vehicle: saline) turn out when NC1=NC(O)(c2ccccc2)C(O)(c2ccccc2)N1 (stereo not drawn) was run?
Answer: 98 % of control

Question: And the T/C (dose: 50.0 mg/kg/injection, schedule: Q04DX002 (ip), vehicle: saline)?
Answer: 97 % of control

Question: And the T/C [1]?
Answer: 98 % of control

Question: With Cn1c2ccccc2c2ccc3c(c21)C(=O)C=CC3=O as the compound, how does the T/C (dose: 25.0 mg/kg/injection, schedule: Q01DX009 (ip), vehicle: distilled water + Tween-80) read?
Answer: 120 % of control

Question: With N=C(N)c1ccc(NC(=S)Nc2ccc(C(=N)N)cc2)cc1 as the compound, how does the T/C (dose: 6.25 mg/kg/injection, schedule: Q01DX009 (ip), vehicle: saline) read?
Answer: 101 % of control

Question: What about the T/C [2] of the same compound?
Answer: 99 % of control

Question: And the T/C [3]?
Answer: 99 % of control

Question: What does the source list for NC(=S)/N=C(/N)NC(=O)c1ccccc1?
Answer: T/C [11]: 87 % of control; T/C [12]: 87 % of control; T/C (dose: 100.0 mg/kg/injection, schedule: Q01DX009 (ip), vehicle: saline with Tween-80): 86 % of control; T/C (dose: 200.0 mg/kg/injection, schedule: Q01DX009 (ip), vehicle: saline with Tween-80): 110 % of control

Question: What does the source list for Cc1cnc(Sc2ncccn2)c(C(=O)O)c1[N+](=O)[O-]?
Answer: T/C [8]: 101 % of control; T/C [9]: 99 % of control; T/C [10]: 100 % of control

Question: How did the T/C (dose: 1.56 mg/kg/injection, schedule: Q01DX005 (ip), vehicle: saline) turn out when Cc1ccc(/C=C/C(=O)C(CN(C)C)CN(C)C)cc1 was run?
Answer: 100 % of control

Question: And the T/C (dose: 3.12 mg/kg/injection, schedule: Q01DX005 (ip), vehicle: saline)?
Answer: 106 % of control

Question: Cc1nc2ccccc2c(=O)n1/N=C/c1ccccc1Cl was tested. Which T/C (dose: 50.0 mg/kg/injection, schedule: Q01DX005 (ip), vehicle: saline with Tween-80) did it give?
Answer: 100 % of control

Question: What about the T/C (dose: 100.0 mg/kg/injection, schedule: Q01DX005 (ip), vehicle: saline with Tween-80) of the same compound?
Answer: 99 % of control

Question: And the T/C (dose: 200.0 mg/kg/injection, schedule: Q01DX005 (ip), vehicle: saline with Tween-80)?
Answer: 100 % of control

Question: COCC(=O)OC was tested. Which T/C [3] did it give?
Answer: 97 % of control

Question: And the T/C [13]?
Answer: 100 % of control

Question: And the T/C [14]?
Answer: 98 % of control

Question: What about the T/C [15] of the same compound?
Answer: 92 % of control

Question: CC(CSc1ccccc1)C(Sc1ccccc1)Sc1ccccc1 (stereo not drawn) was tested. Which T/C [13] did it give?
Answer: 102 % of control

Question: What about the T/C [14] of the same compound?
Answer: 98 % of control

Question: What about the T/C [15] of the same compound?
Answer: 106 % of control

Question: Which T/C [4] does the source give for CP(=Nc1ccccc1)(c1ccccc1)c1ccccc1 here?
Answer: 95 % of control

Question: What about the T/C (dose: 200.0 mg/kg/injection, schedule: Q01DX001 (ip), vehicle: saline with Tween-80) of the same compound?
Answer: 99 % of control

Question: What about the T/C (dose: 400.0 mg/kg/injection, schedule: Q01DX001 (ip), vehicle: saline with Tween-80) of the same compound?
Answer: 102 % of control

Question: How did the T/C [8] turn out when Cc1cnnc2c3ccccc3nn12 was run?
Answer: 99 % of control

Question: What about the T/C [9] of the same compound?
Answer: 101 % of control

Question: And the T/C [10]?
Answer: 101 % of control

Question: COC(=Nc1ccccc1)SSC(C)C was tested. Which T/C [11] did it give?
Answer: 115 % of control

Question: What about the T/C [12] of the same compound?
Answer: 115 % of control

Question: What does the source list for COc1ccc2c(oc(=O)c3c(Cl)nc(C)c(C)c32)c1OC?
Answer: T/C (dose: 12.5 mg/kg/injection, schedule: Q01DX009 (ip), vehicle: Klucel (hydroxypropylcellulose) (HPC)): 98 % of control; T/C (dose: 12.5 mg/kg/injection, schedule: Q04DX003 (ip), vehicle: Klucel (hydroxypropylcellulose) (HPC)): 100 % of control; T/C (dose: 25.0 mg/kg/injection, schedule: Q01DX009 (ip), vehicle: Klucel (hydroxypropylcellulose) (HPC)): 98 % of control; T/C (dose: 25.0 mg/kg/injection, schedule: Q04DX003 (ip), vehicle: Klucel (hydroxypropylcellulose) (HPC)): 102 % of control; T/C [5]: 98 % of control; T/C (dose: 50.0 mg/kg/injection, schedule: Q04DX003 (ip), vehicle: Klucel (hydroxypropylcellulose) (HPC)): 94 % of control; T/C [6]: 97 % of control; T/C (dose: 100.0 mg/kg/injection, schedule: Q04DX003 (ip), vehicle: Klucel (hydroxypropylcellulose) (HPC)): 90 % of control; T/C [7]: 97 % of control; T/C (dose: 200.0 mg/kg/injection, schedule: Q04DX003 (ip), vehicle: Klucel (hydroxypropylcellulose) (HPC)): 90 % of control
